Results as given in ChEMBL document CHEMBL2034824, “Pyridyl-2,5-diketopiperazines as potent, selective, and orally bioavailable oxytocin antagonists: synthesis, pharmacokinetics, and in vivo potency” (J Med Chem, 2012).
In brackets after ≈: the same amount, converted by molar mass.

Tests used:
[1] = target: T1, Oxytocin receptor (Homo sapiens, UniProt P30559); assay: Displacement of [3H]oxytocin from human oxytocin receptor
T1 sequence (P30559 whole entry): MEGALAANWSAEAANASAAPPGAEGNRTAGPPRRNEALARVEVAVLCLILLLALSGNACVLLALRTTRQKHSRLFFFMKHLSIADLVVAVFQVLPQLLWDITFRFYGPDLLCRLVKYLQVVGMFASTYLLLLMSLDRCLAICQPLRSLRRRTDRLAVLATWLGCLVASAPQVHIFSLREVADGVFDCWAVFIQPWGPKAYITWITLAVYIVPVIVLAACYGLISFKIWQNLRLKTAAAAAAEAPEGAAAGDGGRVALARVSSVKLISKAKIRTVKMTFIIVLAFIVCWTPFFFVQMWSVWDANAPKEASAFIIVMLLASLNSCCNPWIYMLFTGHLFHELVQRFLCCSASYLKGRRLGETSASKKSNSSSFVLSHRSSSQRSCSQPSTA

[2] = AUC in rat at 5 mg/kg, po; format: ADME, organism-based; parameters: dose 5 mg/kg, route oral; conditions: plasma
[3] = Clearance in rat at 5 mg/kg; format: ADME, organism-based; parameters: dose 5 mg/kg; conditions: in vivo
[4] = Oral bioavailability in rat at 5 mg/kg; format: ADME, organism-based; conditions: in vivo
[5] = AUC in dog at 0.6 mg/kg, po; format: ADME, organism-based, Canis lupus familiaris; parameters: dose 0.6 mg/kg, route oral; conditions: plasma
[6] = Clearance in dog at 0.6 mg/kg; format: ADME, organism-based, Canis lupus familiaris; parameters: dose 0.6 mg/kg; conditions: in vivo
[7] = Oral bioavailability in dog at 0.6 mg/kg; format: ADME, organism-based, Canis lupus familiaris; conditions: in vivo
[8] = test system: Liver microsomes; assay: Intrinsic clearance in rat liver microsomes; format: ADME, Microsome
[9] = test system: Liver; assay: Intrinsic clearance in dog liver microsomes; format: ADME, Canis lupus familiaris, Microsome
[10] = Intrinsic clearance in cynomolgus monkey liver microsomes; format: ADME, Macaca fascicularis, Microsome
[11] = test system: Liver microsomes; assay: Intrinsic clearance in human liver microsomes; format: ADME, Microsome
[12] = AUC in cynomolgus monkey at 2 mg/kg, po; format: ADME, organism-based, Macaca fascicularis; parameters: dose 2 mg/kg, route oral; conditions: plasma
[13] = Clearance in cynomolgus monkey at 2 mg/kg; format: ADME, organism-based, Macaca fascicularis; parameters: dose 2 mg/kg; conditions: in vivo
[14] = Oral bioavailability in cynomolgus monkey at 2 mg/kg; format: ADME, organism-based, Macaca fascicularis; conditions: in vivo
[15] = Lipophilicity, log D of the compound by HPLC analysis; format: physicochemical
[16] = target: serum albumin (Homo sapiens, UniProt P02768); assay: Binding affinity to human serum albumin; format: ADME; conditions: read-out: PB (converted)
Sequence of serum albumin (Homo sapiens, UniProt P02768) (P02768 whole entry): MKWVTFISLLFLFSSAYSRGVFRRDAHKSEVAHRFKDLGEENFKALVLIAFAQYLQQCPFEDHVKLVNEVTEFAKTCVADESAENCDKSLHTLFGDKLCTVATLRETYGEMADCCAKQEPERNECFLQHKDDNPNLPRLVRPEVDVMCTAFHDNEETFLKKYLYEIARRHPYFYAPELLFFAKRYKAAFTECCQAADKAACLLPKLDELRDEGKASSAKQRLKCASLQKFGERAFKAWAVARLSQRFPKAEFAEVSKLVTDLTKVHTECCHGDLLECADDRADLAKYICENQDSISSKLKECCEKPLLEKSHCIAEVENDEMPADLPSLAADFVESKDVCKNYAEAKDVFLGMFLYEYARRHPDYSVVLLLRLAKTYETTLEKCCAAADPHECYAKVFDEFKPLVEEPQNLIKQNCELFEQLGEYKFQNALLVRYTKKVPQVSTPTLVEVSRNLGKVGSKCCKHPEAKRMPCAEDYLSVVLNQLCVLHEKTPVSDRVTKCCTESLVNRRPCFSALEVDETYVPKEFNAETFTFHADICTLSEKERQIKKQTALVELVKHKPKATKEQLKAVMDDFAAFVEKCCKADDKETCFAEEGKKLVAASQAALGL

[17] = target: serum albumin (Rattus norvegicus, UniProt P02770); assay: Binding affinity to rat serum albumin; format: ADME; conditions: read-out: PB (converted)
Sequence of serum albumin (Rattus norvegicus, UniProt P02770) (P02770 whole entry): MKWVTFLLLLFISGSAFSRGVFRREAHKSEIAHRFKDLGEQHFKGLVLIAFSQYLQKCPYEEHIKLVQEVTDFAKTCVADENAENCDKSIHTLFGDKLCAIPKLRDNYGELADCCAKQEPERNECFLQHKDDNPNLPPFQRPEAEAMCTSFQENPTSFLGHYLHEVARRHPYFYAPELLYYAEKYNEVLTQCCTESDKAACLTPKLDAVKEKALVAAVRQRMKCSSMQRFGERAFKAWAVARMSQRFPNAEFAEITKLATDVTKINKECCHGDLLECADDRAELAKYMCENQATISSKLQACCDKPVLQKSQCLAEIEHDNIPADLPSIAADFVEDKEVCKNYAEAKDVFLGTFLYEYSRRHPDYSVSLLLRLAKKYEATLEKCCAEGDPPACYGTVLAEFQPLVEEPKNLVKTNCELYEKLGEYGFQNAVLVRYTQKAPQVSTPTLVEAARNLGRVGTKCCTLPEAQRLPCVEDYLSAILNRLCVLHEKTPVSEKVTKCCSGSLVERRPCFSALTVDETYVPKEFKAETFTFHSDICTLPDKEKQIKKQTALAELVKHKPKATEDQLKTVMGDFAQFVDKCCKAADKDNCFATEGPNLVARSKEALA

[18] = target: Vasopressin V1a receptor (Homo sapiens, UniProt P37288); assay: Displacement of [3H]vasopressin from human vasopressin V1a receptor
Sequence of Vasopressin V1a receptor (P37288 whole entry): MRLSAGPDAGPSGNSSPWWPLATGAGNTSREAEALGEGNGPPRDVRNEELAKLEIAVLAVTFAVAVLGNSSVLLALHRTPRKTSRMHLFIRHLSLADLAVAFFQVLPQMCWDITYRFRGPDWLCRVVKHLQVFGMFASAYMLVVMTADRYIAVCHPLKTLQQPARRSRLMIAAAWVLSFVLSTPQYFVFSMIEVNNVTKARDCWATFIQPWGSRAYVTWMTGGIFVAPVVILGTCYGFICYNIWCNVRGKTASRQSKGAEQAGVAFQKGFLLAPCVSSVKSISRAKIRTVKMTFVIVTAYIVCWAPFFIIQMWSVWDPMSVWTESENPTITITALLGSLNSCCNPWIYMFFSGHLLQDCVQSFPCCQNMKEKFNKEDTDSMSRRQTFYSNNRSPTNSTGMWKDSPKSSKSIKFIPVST

[19] = target: T2, Vasopressin V1b receptor (Homo sapiens, UniProt P47901); assay: Displacement of [3H]vasopressin from human vasopressin V1b receptor
T2 sequence (P47901 whole entry): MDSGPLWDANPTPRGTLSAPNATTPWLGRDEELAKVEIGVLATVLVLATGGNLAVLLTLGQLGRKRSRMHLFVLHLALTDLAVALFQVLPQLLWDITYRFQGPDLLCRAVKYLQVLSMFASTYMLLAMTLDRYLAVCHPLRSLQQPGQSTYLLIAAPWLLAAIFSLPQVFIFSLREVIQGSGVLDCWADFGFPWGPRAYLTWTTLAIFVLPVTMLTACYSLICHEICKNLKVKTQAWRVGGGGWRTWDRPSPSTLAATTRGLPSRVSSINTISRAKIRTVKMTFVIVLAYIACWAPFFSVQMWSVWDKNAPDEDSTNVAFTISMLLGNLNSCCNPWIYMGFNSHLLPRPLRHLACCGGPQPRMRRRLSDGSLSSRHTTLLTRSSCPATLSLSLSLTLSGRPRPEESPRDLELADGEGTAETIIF

[20] = target: Vasopressin V2 receptor (Homo sapiens, UniProt P30518); assay: Displacement of [3H]vasopressin from human vasopressin V2 receptor
Sequence of Vasopressin V2 receptor (P30518 whole entry): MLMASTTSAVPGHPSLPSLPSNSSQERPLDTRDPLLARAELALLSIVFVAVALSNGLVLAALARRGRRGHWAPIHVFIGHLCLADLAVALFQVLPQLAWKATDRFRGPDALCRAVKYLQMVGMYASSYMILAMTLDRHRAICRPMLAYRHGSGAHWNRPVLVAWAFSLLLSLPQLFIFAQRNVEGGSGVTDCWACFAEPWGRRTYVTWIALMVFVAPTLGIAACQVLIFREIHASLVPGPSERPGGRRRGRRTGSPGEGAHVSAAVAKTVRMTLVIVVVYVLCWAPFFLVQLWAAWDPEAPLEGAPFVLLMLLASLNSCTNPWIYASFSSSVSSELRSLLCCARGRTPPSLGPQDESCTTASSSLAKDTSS

[21] = target: T3, Cytochrome P450 1A2 (Homo sapiens, UniProt P05177); assay: Inhibition of human CYP1A2; format: ADME
T3 sequence (P05177 whole entry): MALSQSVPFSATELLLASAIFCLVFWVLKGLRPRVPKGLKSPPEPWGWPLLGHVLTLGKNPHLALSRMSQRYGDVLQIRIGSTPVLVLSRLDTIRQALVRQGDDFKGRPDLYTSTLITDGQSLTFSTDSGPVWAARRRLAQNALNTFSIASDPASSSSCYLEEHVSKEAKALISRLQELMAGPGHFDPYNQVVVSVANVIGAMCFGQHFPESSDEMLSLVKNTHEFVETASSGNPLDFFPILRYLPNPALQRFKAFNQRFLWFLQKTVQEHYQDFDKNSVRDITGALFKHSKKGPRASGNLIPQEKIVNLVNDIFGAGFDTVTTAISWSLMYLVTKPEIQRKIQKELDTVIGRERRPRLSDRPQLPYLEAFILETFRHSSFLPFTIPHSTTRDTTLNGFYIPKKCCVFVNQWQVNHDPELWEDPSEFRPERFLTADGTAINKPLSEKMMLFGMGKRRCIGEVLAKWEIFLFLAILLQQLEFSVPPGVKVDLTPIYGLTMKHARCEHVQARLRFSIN

[22] = target: Cytochrome P450 2C9 (Homo sapiens, UniProt P11712); assay: Inhibition of human CYP2C9; format: ADME
Sequence of Cytochrome P450 2C9 (P11712 whole entry): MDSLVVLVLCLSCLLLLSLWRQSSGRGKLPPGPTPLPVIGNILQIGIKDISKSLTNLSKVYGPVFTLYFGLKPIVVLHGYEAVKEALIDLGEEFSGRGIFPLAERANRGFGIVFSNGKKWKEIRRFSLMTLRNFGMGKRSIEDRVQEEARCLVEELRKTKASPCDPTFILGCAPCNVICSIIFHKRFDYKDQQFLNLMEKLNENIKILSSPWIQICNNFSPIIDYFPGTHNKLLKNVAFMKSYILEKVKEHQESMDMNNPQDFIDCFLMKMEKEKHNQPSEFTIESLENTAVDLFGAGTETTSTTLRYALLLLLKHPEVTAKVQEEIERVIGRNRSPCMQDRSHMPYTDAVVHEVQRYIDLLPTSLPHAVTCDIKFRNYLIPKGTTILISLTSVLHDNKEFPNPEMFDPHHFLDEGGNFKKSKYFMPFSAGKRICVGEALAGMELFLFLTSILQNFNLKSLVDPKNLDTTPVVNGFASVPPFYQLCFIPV

[23] = target: Cytochrome P450 2C19 (Homo sapiens, UniProt P33261); assay: Inhibition of human CYP2C19; format: ADME
Sequence of Cytochrome P450 2C19 (P33261 whole entry): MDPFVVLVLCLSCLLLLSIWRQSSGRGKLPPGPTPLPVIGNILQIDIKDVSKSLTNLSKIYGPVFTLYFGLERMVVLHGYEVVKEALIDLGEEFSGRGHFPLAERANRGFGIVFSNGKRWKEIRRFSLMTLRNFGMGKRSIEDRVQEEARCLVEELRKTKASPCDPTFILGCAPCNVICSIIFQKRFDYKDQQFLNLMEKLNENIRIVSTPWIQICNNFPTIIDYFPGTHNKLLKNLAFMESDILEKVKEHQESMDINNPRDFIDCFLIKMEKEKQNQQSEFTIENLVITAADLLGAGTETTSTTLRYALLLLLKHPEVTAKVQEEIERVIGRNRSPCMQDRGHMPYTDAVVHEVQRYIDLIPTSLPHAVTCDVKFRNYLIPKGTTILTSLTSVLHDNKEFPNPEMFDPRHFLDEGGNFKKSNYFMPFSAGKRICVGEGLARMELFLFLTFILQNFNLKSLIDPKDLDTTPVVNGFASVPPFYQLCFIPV

[24] = target: Cytochrome P450 2D6 (Homo sapiens, UniProt P10635); assay: Inhibition of human CYP2D6; format: ADME
Sequence of Cytochrome P450 2D6 (P10635 whole entry): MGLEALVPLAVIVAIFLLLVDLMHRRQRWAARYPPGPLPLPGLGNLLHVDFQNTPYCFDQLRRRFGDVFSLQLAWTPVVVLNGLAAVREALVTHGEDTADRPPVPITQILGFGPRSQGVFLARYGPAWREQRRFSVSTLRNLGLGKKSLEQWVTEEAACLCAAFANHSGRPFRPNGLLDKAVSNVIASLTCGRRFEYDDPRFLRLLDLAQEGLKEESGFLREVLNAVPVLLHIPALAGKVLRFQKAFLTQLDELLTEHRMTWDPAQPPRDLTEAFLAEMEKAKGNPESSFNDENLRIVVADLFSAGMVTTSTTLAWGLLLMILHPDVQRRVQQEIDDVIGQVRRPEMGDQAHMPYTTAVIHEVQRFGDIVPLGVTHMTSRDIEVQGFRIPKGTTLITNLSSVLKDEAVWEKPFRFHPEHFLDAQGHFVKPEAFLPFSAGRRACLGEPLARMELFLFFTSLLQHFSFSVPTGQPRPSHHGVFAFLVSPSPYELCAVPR

[25] = target: T4, Cytochrome P450 3A4 (Homo sapiens, UniProt P08684); assay: Inhibition of human CYP3A4 using diethoxyfluorescein as substrate; format: ADME
T4 sequence (P08684 whole entry): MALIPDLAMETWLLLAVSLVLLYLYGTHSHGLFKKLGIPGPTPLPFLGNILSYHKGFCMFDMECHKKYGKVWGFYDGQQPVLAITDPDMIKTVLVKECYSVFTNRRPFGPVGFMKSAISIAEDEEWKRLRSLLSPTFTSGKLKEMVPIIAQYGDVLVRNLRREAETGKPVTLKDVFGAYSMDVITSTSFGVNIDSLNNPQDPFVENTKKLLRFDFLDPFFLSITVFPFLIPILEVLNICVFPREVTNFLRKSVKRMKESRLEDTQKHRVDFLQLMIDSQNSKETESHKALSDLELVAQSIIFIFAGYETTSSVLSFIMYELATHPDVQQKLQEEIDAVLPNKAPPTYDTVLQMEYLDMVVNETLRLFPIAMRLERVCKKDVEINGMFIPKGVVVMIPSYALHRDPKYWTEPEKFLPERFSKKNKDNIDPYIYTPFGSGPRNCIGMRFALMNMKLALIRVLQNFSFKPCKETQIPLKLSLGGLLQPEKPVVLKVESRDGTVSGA

[26] = target: T4, Cytochrome P450 3A4; assay: Inhibition of human CYP3A4 using 7-benzyloxyquinoline as substrate; format: ADME
[27] = Aqueous solubility of the compound by HPLC analysis; format: physicochemical
[28] = test system: Rattus norvegicus; assay: Reduction of oxytocin-induced uterine contraction in iv dosed rat uterine contractility model; format: functional, organism-based
[29] = test system: Salmonella typhimurium; assay: Genotoxicity in Salmonella typhimurium by high-throughput fluctuation test/mini-Ames assay; format: toxicity, organism-based; conditions: salmonella enterica subsp. enterica serovar typhimurium
[30] = test system: Rattus norvegicus; assay: Toxicity in Sprague-Dawley rat assessed as reduction in body weight at 100 mg/kg/day, po for 7 days; format: organism-based; parameters: route oral; conditions: in vivo, 168 h
[31] = test system: Rattus norvegicus; assay: Toxicity in Sprague-Dawley rat assessed as reduction in food intake at 100 mg/kg/day, po for 7 days; format: organism-based; parameters: route oral; conditions: in vivo, 168 h
[32] = test system: Rattus norvegicus; assay: Toxicity in Sprague-Dawley rat assessed as adverse clinical signs at 100 mg/kg/day, po for 7 days; format: organism-based; parameters: route oral; conditions: in vivo, 168 h
[33] = test system: Rattus norvegicus; assay: Toxicity in Sprague-Dawley rat assessed as adverse histological findings at 100 mg/kg/day, po for 7 days; format: organism-based; parameters: route oral; conditions: in vivo, 168 h
[34] = Dissociation constant, pKa of the compound in aqueous solution; format: physicochemical
[35] = Lipophilicity, log D of the compound at pH 7.4; format: physicochemical; conditions: buffer
[36] = Solubility of the compound in water; format: physicochemical
[37] = Chemical stability of the compound up to 3 months at 50 degC; format: physicochemical
[38] = Chemical stability of the compound in aqueous solution at pH 2 to 6 up to 7 days in presence of light; format: physicochemical; conditions: buffer, pH 2, 168 h
[39] = Half life in rat; format: ADME, organism-based; conditions: in vivo

SMILES | Ki [1] [nM] | AUC [2] [ng·h/mL] | clearance [3] [mL/min/kg] | bioavailability [4] [%] | AUC [5] [ng·h/mL] | clearance [6] [mL/min/kg] | bioavailability [7] [%] | CLH [8] [mL/min/g] | CLH [9] [mL/min/g] | CLH [10] [mL/min/g] | CLH [11] [mL/min/g] | AUC [12] [ng·h/mL] | clearance [13] [mL/min/kg] | bioavailability [14] [%] | logD [15] | fraction unbound [16] | Ki [18] [µM] | Ki [19] [µM] | Ki [20] [µM] | IC50 [21] [µM] | further results
CCC(CC)[C@@H]1C(=O)N[C@H](C2Cc3ccccc3C2)C(=O)N1[C@@H](C(=O)NC)c1ccc(C)nc1 | 0.1 | 1470 | 17 | 28 | 173 | 22 | 38 | 1 | 2 | 8 | 4 | 29 | 24 | 4 | – | – | – | – | – | – | –
CCC(CC)[C@@H]1C(=O)N[C@H](C2Cc3ccccc3C2)C(=O)N1[C@@H](C(=O)N1CCOCC1)c1ccc(C)nc1C | 0.0316 | 2330 | 15 | 42 | – | – | – | 1 | 1 | 14 | 11 | 11 | – | – | – | – | – | – | – | – | –
CC(C)C[C@@H]1C(=O)N[C@H](C2Cc3ccccc3C2)C(=O)N1[C@@H](C(=O)N(C)C)c1ccc(F)cc1F | 0.0794 | 2970 | 15 | – | 770 | 7 | – | 2 | 7 | 22 | 14 | 16 | 24 | 1.5 | 3.4 | 0.06 | 0.631 | > 12.6 | 0.0398 | > 100 | fraction unbound [17]: 0.01; IC50 [22]: 12 µM; IC50 [23]: 38 µM; IC50 [24]: 66 µM; IC50 [25]: 5 µM; IC50 [26]: 31 µM
CC[C@H](C)[C@@H]1C(=O)N[C@H](C2Cc3ccccc3C2)C(=O)N1[C@@H](C(=O)N1CCOCC1)c1ccc(C)nc1C [EPELSIBAN] | 0.126 | 3450 | 13 | 55 | 69 | 19 | 13 | < 1 | < 1 | 4 | 5 | 116 | 26 | 7 | 2.2 | 0.3 | > 6.31 | > 7.94 | 3.98 | > 100 | solubility [27]: 0.232 mg/mL (≈ 0.447 mM); IC50 [28]: 0.192 µM; IC50 [22]: > 100 µM; IC50 [23]: > 100 µM; IC50 [24]: > 100 µM; IC50 [25]: > 100 µM; IC50 [26]: > 100 µM; Activity [29]: Non-toxic; Activity [30]: Non-toxic; Activity [31]: Non-toxic; Activity [32]: Non-toxic; Activity [33]: Non-toxic; pKa [34]: 5.78; logD [35]: 2.55; solubility [36]: 33 mg/mL (≈ 63.6 mM); Stability [37]: Stable; Stability [38]: Stable; half-life [39]: 1.2 h
CC[C@H](C)[C@@H]1C(=O)N[C@H](C2Cc3ccccc3C2)C(=O)N1[C@@H](C(=O)N1CCOCC1)c1coc(C)n1 [RETOSIBAN] | – | – | – | – | – | – | – | – | – | 6 | 3 | 45 | 26 | 10 | – | – | – | – | – | – | –
